In patent US20230414699A1, “TREATMENT OF DERMATOLOGICAL CONDITIONS” (MC2 Therapeutics Ltd, priority 2020, published 2023):
Structures can show the parent of a compound that is named as a salt. Peptide text beside a SMILES is read from it.

Experiments:
[1] = test system: Bovine Serum Albumin (BSA); experiment: In vitro protein carbamylation assay (14C-potassium cyanate, BSA); type: biochemical; details: for Degree of carbamylation (% relative to HBSS control): 10 mM nucleophile, 37° C., 72 hours
Method: 200 μL of a 0.5% BSA solution, 200 μL of test solution and 100 μL of a 5 μCi/mL ^14C-Potassium Cyanate solution was mixed in an Eppendorf tube (corresponding to a final concentration of 75 μM BSA, 25 μM ^14C-Potassium Cyanate, and 10 mM nucleophile). Samples run in triplicates (n=3). The Eppendorf tubes were incubated at 37° C. for 72 hours (if not otherwise stated).
After incubation a volume of 100 μL of each sample was transferred to a new Eppendorf tube containing 100 μL of a 10% trichloroacetic acid (TCA) and kept at 4° C. overnight (for precipitation of BSA). Subsequently, the precipitated BSA was separated from the buffer by centrifugation (10000 rpm, 30 seconds). The supernatant was removed and the BSA pellet was resuspended in 200 μL of a 10% solution of cold TCA (4° C.). The pellet was recovered by centrifugation (10000 rpm, 30 seconds) and supernatant was discarded. The BSA pellet was resuspended in 100 μL purified water (MilliQ) and transferred to a scintillation vial. The Eppendorf tube (previously containing the BSA pellet) was rinsed with an additional 100 μL purified water which al was transferred to the relevant scintillation vial.

[2] = test system: reconstructed human skin (EpiDermFT); experiment: Histological analysis (H&E) of reconstructed human skin samples treated with urea:isocyanate; type: cell-based; details: 0.5 M urea:isocyanate 99:1 + 200 μL 2% nucleophile solution, six days; vs control treated with only urea:isocyanate
Method: Epiderm Full Thickness (Epiderm FT, MatTek Corp., USA) tissues were transferred to B6 trays containing EpiDerm™ Full Thickness Maintenance Medium (MatTek Corp., USA) immediately upon arrival and incubated for 24 hours at 37° C. and 5% CO2. […] At day 6, the treatment solutions and the maintenance medium were removed from the tissues, and pre-warmed phosphate buffered saline (DPBS, Sigma-Aldrich) was added and removed twice before the tissues were submitted for ELISA and histological analysis. The 7 different conditions were tested on four different tissues where one tissue from each treatment was submitted for ELISA and the remaining three tissues were submitted for histological analysis. Overview of Treatment Solutions Added to the Apical Compartment • 1. […] EpiDermFT membranes were app. 1 cm in diameter and were fixed in formalin for 5 days. Membranes were cut into halves using a scissors and placed into histogel matrix aiming at having the cut surface as the tissue sectioning surface. The samples were dehydrated in alcohol and xylene and embedded in paraffin using a standard paraffin embedding procedure. Sections were cut at 4 μm for Hematoxylin and Eosin (H&E) staining and immunohistochemistry (IHC). Images were acquired using a 20× objective with a Zeiss AxioScan. Representative areas were selected for presentation. […]

[3] = test system: reconstructed human skin (Epiderm Full Thickness); experiment: In vitro protein carbamylation assay using reconstructed human skin (Protein Carbamylation Sandwich ELISA); type: cell-based; details: 0.5 M urea:isocyanate 99:1 + 200 μL 2% nucleophile solution, apical, six days
Method: Epiderm Full Thickness (Epiderm FT, MatTek Corp., USA) tissues were transferred to B6 trays containing EpiDermTM Full Thickness Maintenance Medium (MatTek Corp., USA) immediately upon arrival and incubated for 24 hours at 37° C. and 5% CO2. […] At day 6, the treatment solutions and the maintenance medium were removed from the tissues, and pre-warmed phosphate buffered saline (DPBS, Sigma-Aldrich) was added and removed twice before the tissues were submitted for ELISA and histological analysis. The 7 different conditions were tested on four different tissues where one tissue from each treatment was submitted for ELISA and the remaining three tissues were submitted for histological analysis. Overview of Treatment Solutions Added to the Apical Compartment • 1. […] The concentration used was selected to resemble the approximate concentration of urea in urine (Liu et. al. 2012). Experimental procedure for protein extraction was modified from Ross-Hansen et al., 2014 and Palosuo et al., 1998. The cell covered […] filters (Mattek) were cut from the plastic insertion ring, and the cell layer gently peeled of the membrane with a scalpel. […] Samples were analysed undiluted in a Protein Carbamylation Sandwich ELISA (Cell Biolabs Inc cat no STA-877).

[4] = 75 μM BSA, 25 μM 14C-potassium cyanate, n=3
[5] = dissolved in HBSS:DMSO 90:10, neutralized by equimolar NaOH before use
[6] = neutralized by equimolar NaOH before use

Compound | Degree of carbamylation (% relative to HBSS control) [1, 4] [%] | also measured
Ile-Pro | 41.4 | –
Ala-Glu | 20.4 | –
Lys-Pro | 28.6 | –
Arg | 52.4 | –
Tyr-Pro | 32.8 | –
CC(N)C12CC3CC(CC(C3)C1)C2.Cl (stereo not drawn) [Rimantadine*HCl, reference compound] | – | Degree of carbamylation (% relative to HBSS control) [1, 5]: 78.5%
Ser-Pro | 26.4 | –
Gly-Ser | 33.1 | –
Sitagliptine phosphate [reference compound] | – | Degree of carbamylation (% relative to HBSS control) [1, 6]: 48.6%
Pro-Ser | 41.9 | –
Cl.N=C(N)NCCC[C@H](N)C(=O)O [Arg*HCl] | 66.1 | –
N[C@@H](Cc1c[nH]cn1)C(=O)O [Histidine] | 61.1 | –
Ala-Gln | 34.8 | –
Gly-His | 22.6 | –
CN(C)C(=N)NC(=N)N.Cl [Metformin*HCl, reference compound] | – | Degree of carbamylation (% relative to HBSS control) [1, 5]: 71.4%
CC(C)C[C@H](NC(=O)[C@@H](O)[C@H](N)Cc1ccccc1)C(=O)O [Bestatin, reference compound] | 53.4 | –
N[C@@H](CC(=O)N1CCn2c(nnc2C(F)(F)F)C1)Cc1cc(F)c(F)cc1F [Sitagliptin] | – | attachment of epidermis / reduction of skin damage (H&E, FIG. 3) [2]: least effect; inhibition of protein carbamylation (ELISA, FIG. 2) [3]: did not show complete inhibition
Val-Tyr | 28.9 | –
Gly-Gly | 26.6 | –
COC(=O)[C@H](Cc1ccccc1)NC(=O)[C@@H](N)CC(=O)O [Aspartame] (HELM PEPTIDE1{D.F.[CO[*:1]]}$$$$V2.0) | 30.4 | –
N=C(N)c1ccc(OCCCCCOc2ccc(C(=N)N)cc2)cc1 [Pentamidine diisethionate, reference compound] | – | Degree of carbamylation (% relative to HBSS control) [1, 6]: 43.1%
CC1=NCC[C@@H](C(=O)O)N1 [Ectoine, reference compound] | 97.9 | degree of carbamylation (%) relative to HBSS control, in words ([1]; text statement referring to Example 3): high degree of carbamylation
Tyr-Ala | 26.1 | –
NCCNCC(=O)O [N-β-aminoethyl-Gly] | 29.7 | –
NNCCc1ccccc1 [Phenelzine sulfate, reference compound] | – | Degree of carbamylation (% relative to HBSS control) [1, 6]: 9.8%
Val-Pro | 22.1 | –
CC(=O)N[C@@H](CS)C(=O)O [Acetylcysteine, reference compound] | 14.3 | –
Tetraglycine | 24.9 | –
